From PubChem BioAssay AID1259407 (Chemical Carcinogenesis Research Information System (CCRIS), 2018)
Active and inactive are the calls of the source. No rule for the calls is given here.

Test system: CCRIS mutagenicity, Ames/micronucleus/aberration tests
Assay: CCRIS mutagenicity studies

Measured: mutagenic call

CCC(C)Nc1ccc(NC(C)CC)cc1 (stereo not given)
inactive: End Point: IN VITRO CHROMOSOMAL ABERRATIONS, Test System: CHINESE HAMSTER LUNG CELLS (CHL), Metabolic Activation: RAT, LIVER, S-9, KC-400 inactive; negative | End Point: IN VITRO CHROMOSOMAL ABERRATIONS, Test System: CHINESE HAMSTER OVARY CELLS (CHO), Metabolic Activation: NONE inactive; negative | End Point: IN VITRO CHROMOSOMAL ABERRATIONS, Test System: CHINESE HAMSTER OVARY CELLS (CHO), Metabolic Activation: RAT, LIVER, S-9, AROCLOR 1254 inactive; negative | Test System: AMES SALMONELLA TYPHIMURIUM, Strain/Indicator: TA97, Metabolic Activation: HAMSTER, LIVER, S-9, AROCLOR 1254 (10%), Method: PREINCUBATION inactive; negative | Test System: AMES SALMONELLA TYPHIMURIUM, Strain/Indicator: TA97, Metabolic Activation: HAMSTER, LIVER, S-9, AROCLOR 1254 (30%), Method: PREINCUBATION inactive; negative | Test System: AMES SALMONELLA TYPHIMURIUM, Strain/Indicator: TA97, Metabolic Activation: NONE, Method: PREINCUBATION inactive; negative | Test System: AMES SALMONELLA TYPHIMURIUM, Strain/Indicator: TA97, Metabolic Activation: RAT, LIVER, S-9, AROCLOR 1254 (10%), Method: PREINCUBATION inactive; negative | Test System: AMES SALMONELLA TYPHIMURIUM, Strain/Indicator: TA97, Metabolic Activation: RAT, LIVER, S-9, AROCLOR 1254 (30%), Method: PREINCUBATION inactive; negative | Test System: AMES SALMONELLA TYPHIMURIUM, Strain/Indicator: TA98, Metabolic Activation: HAMSTER, LIVER, S-9, AROCLOR 1254 (10%), Method: PREINCUBATION inactive; negative | Test System: AMES SALMONELLA TYPHIMURIUM, Strain/Indicator: TA98, Metabolic Activation: HAMSTER, LIVER, S-9, AROCLOR 1254 (30%), Method: PREINCUBATION inactive; negative | Test System: AMES SALMONELLA TYPHIMURIUM, Strain/Indicator: TA98, Metabolic Activation: NONE, Method: PREINCUBATION inactive; negative | Test System: AMES SALMONELLA TYPHIMURIUM, Strain/Indicator: TA98, Metabolic Activation: RAT, LIVER, S-9, AROCLOR 1254 (10%), Method: PREINCUBATION inactive; negative | Test System: AMES SALMONELLA TYPHIMURIUM, Strain/Indicator: TA98, Metabolic Activation: RAT, LIVER, S-9, AROCLOR 1254 (30%), Method: PREINCUBATION inactive; negative | Test System: AMES SALMONELLA TYPHIMURIUM, Strain/Indicator: TA100, Metabolic Activation: HAMSTER, LIVER, S-9, AROCLOR 1254 (5%), Method: PREINCUBATION inactive; negative | Test System: AMES SALMONELLA TYPHIMURIUM, Strain/Indicator: TA100, Metabolic Activation: HAMSTER, LIVER, S-9, AROCLOR 1254 (10%), Method: PREINCUBATION inactive; negative | Test System: AMES SALMONELLA TYPHIMURIUM, Strain/Indicator: TA100, Metabolic Activation: HAMSTER, LIVER, S-9, AROCLOR 1254 (30%), Method: PREINCUBATION inactive; negative | Test System: AMES SALMONELLA TYPHIMURIUM, Strain/Indicator: TA100, Metabolic Activation: NONE, Method: PREINCUBATION inactive; negative | Test System: AMES SALMONELLA TYPHIMURIUM, Strain/Indicator: TA100, Metabolic Activation: RAT, LIVER, S-9, AROCLOR 1254 (5%), Method: PREINCUBATION inactive; negative | Test System: AMES SALMONELLA TYPHIMURIUM, Strain/Indicator: TA100, Metabolic Activation: RAT, LIVER, S-9, AROCLOR 1254 (30%), Method: PREINCUBATION inactive; negative | Test System: AMES SALMONELLA TYPHIMURIUM, Strain/Indicator: TA100, Metabolic Activation: RAT,LIVER, S-9, AROCLOR 1254 (10%), Method: PREINCUBATION inactive; negative | Test System: AMES SALMONELLA TYPHIMURIUM, Strain/Indicator: TA1535, Metabolic Activation: HAMSTER, LIVER, S-9, AROCLOR 1254 (10%), Method: PREINCUBATION inactive; negative | Test System: AMES SALMONELLA TYPHIMURIUM, Strain/Indicator: TA1535, Metabolic Activation: HAMSTER, LIVER, S-9, AROCLOR 1254 (30%), Method: PREINCUBATION inactive; negative | Test System: AMES SALMONELLA TYPHIMURIUM, Strain/Indicator: TA1535, Metabolic Activation: NONE, Method: PREINCUBATION inactive; negative | Test System: AMES SALMONELLA TYPHIMURIUM, Strain/Indicator: TA1535, Metabolic Activation: RAT, LIVER, S-9, AROCLOR 1254 (10%), Method: PREINCUBATION inactive; negative | Test System: AMES SALMONELLA TYPHIMURIUM, Strain/Indicator: TA1535, Metabolic Activation: RAT, LIVER, S-9, AROCLOR 1254 (30%), Method: PREINCUBATION inactive; negative
